Source: patent publication US8470812B2, “Substituted benzo-pyrimido-tetrazolo-diazepine compounds” (ArQule, Inc., priority 2009, dated 2013)
Counter-ions that a name gives are not always drawn.

Tests used:
CaMK2α = CaMK2α (Homo sapiens, UniProt Q9UQM7); assay: CaMKII kinase activity, mobility shift assay (MSA); assay type: biochemical; settings: 10 μM compound; ATP 50, GS peptide 1 uM; read-out: CaMK2α inh. @ 10 μM (%)
Procedure: (§1) CAMKII and CDK7 activity was assayed using a mobility shift assay (MSA). Test inhibitors and controls (staurosporine) were prepared at 4× the desired final concentration. Test compound (5.0 μL), 4× substrate/ATP/metal solution (5.0 μL), and 2× kinase (10 μL) were added to each well of a reaction plate and incubated for 1 hr at room temperature. The assay components were diluted in assay buffer (20 mM HEPES pH 7.5, 0.01% Triton X-100, 2 mM DTT). To terminate the reaction, 60 μL of termination buffer (QuickScout Screening Assist MSA, Carna Biosciences) was added to each well. The reaction mixture was applied to the LabChip3000 system (Caliper Life Sciences) and the product and substrate peptide peaks were separated and quantified.

CaMK2β = CaMK2β (Homo sapiens, UniProt Q13554); assay: CaMKII kinase activity, mobility shift assay (MSA); assay type: biochemical; settings: 10 μM compound; ATP 25, GS peptide 1 uM; read-out: CaMK2β inh. @ 10 μM (%)
Procedure: as §1

CaMK2γ = CaMK2γ (Homo sapiens, UniProt Q13555); assay: CaMKII kinase activity, mobility shift assay (MSA); assay type: biochemical; settings: 10 μM compound; ATP 25, GS peptide 1 uM; read-out: CaMK2γ inh. @ 10 μM (%)
Procedure: as §1

CaMK2δ = CaMK2δ (Homo sapiens, UniProt Q13557); assay: CaMKII kinase activity, mobility shift assay (MSA); assay type: biochemical; settings: 10 μM compound; ATP 5, GS peptide 1 uM; read-out: CaMK2δ inh. @ 10 μM (%)
Procedure: as §1

DLD-1 cancer cells = assay: MTS assay, cell growth inhibition; assay type: cell-based; settings: DLD-1 cells, 72 h incubation; test concentration not given
Procedure: (§2) Cells were maintained at 37° C., 5% CO2 in DMEM media supplemented with 1% fetal bovine serum, penicillin/streptomycin and fungizone (Invitrogen). Cells were seeded into 96-well tissue culture plates at 3000 per well and cultured at 37° C. for 18 hours. Test compounds were dissolved and diluted to 300× in DMSO then diluted 1:40 in DMEM. Cells were incubated with test compounds for 72 hours followed by incubation with tetrazolium compound (3-(4,5-dimethylthiazol-2-yl)-5-(3-carboxymethoxyphenyl)-2-(4-sulfophenyl)-2H-tetrazolium, inner salt; MTS) and the electron coupling reagent, phenazine methosulfate (PMS) for 4 hours. […] The ability of compounds to inhibit cell growth in this assay is correlated with the reduction of dehydrogenase enzyme activity found in metabolically active cells. The measurement of the absorbance of the formazan was assessed using a Victor (Perkin Elmer) microplate reader at 492 nm. The calculated IC50 value is the concentration of the test compound that causes a 50% decrease in the absorbance. Selected compounds have been tested in DLD-1 and MDA-MB-231 cancer cells.

MDA-MB-231 cancer cells = assay: MTS assay, cell growth inhibition; assay type: cell-based; settings: MDA-MB-231 cells, 72 h incubation; test concentration not given
Procedure: as §2

CDK7 = CDK7 (Homo sapiens, UniProt P50613); assay: CDK7 kinase activity, mobility shift assay (MSA); assay type: biochemical; settings: 10 μM compound; ATP 50, CTD3 peptide 1 uM; read-out: CDK7 inh. @ 10 μM (%)
Procedure: as §1

Sequence of CDK7 (P50613 whole entry, species assumed): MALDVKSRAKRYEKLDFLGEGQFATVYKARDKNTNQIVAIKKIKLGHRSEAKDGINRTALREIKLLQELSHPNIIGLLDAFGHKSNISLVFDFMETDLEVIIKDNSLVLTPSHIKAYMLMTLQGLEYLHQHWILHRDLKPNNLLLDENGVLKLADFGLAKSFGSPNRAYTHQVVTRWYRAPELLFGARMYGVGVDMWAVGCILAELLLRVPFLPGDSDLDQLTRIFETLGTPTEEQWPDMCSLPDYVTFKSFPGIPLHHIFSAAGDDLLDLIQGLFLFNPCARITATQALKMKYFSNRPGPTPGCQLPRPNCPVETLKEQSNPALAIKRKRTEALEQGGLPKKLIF
Sequence of CDK7 (P51946 whole entry partner, species assumed): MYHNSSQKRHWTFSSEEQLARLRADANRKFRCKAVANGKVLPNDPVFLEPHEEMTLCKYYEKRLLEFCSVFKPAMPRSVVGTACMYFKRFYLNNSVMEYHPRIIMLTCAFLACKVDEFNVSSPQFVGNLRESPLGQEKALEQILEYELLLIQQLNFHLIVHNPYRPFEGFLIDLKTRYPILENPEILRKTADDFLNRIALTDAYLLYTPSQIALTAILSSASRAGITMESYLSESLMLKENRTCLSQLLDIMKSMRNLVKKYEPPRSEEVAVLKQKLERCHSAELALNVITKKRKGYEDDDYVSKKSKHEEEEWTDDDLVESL
Sequence of CDK7 (P51948 whole entry partner, species assumed): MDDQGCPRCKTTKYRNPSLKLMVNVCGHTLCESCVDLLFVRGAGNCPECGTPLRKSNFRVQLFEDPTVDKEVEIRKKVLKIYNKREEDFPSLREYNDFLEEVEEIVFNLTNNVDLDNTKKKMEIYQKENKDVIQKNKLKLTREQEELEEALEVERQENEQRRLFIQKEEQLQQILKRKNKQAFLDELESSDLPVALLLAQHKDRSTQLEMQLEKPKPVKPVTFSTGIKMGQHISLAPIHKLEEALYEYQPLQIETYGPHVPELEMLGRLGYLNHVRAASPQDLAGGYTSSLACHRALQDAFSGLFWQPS

Compound | DLD-1, MTS, 72 h (% Inhibition) (DLD-1 cancer cells) | MDA-MB-231, MTS, 72 h (% Inhibition) (MDA-MB-231 cancer cells) | further results
CN1CCN(c2ncc3c(n2)N(Cc2ccc(F)c(F)c2)c2ccccc2-n2nnnc2-3)CC1 (as salt: HCl) [Compound 14, 9-(3,4-difluorobenzyl)-11-(4-methylpiperazin-1-yl)-9H-pyrimido[5,4-c]tetrazolo[1,5-a][1,5]benzodiazepine] | – | – | melting point: 180 to 191 °C
CN1CCN(c2ncc3c(n2)N(Cc2ccc(F)c(F)c2)c2ccccc2-n2nnnc2-3)CC1 [Compound 14, 9-(3,4-difluorobenzyl)-11-(4-methylpiperazin-1-yl)-9H-pyrimido[5,4-c]tetrazolo[1,5-a][1,5]benzodiazepine] | 49% | 58% | inhibition at 10 µM (CaMK2α): 96%; inhibition at 10 µM (CaMK2β): 88%; inhibition at 10 µM (CaMK2γ): 80%; inhibition at 10 µM (CaMK2δ): 96%
Fc1ccc(CN2c3ccccc3-n3nnnc3-c3cnc(NCc4cccnc4)nc32)cc1F [Compound 16, 9-(3,4-difluorobenzyl)-N-(pyridin-3-ylmethyl)-9H-pyrimido[5,4-c]tetrazolo[1,5-a][1,5]benzodiazepin-11-amine] | 38% | 30% | inhibition at 10 µM (CaMK2α): 67%; inhibition at 10 µM (CaMK2β): 41%; inhibition at 10 µM (CaMK2γ): 11%; inhibition at 10 µM (CaMK2δ): 65%
Fc1ccc(CN2c3ccccc3-n3nnnc3-c3cnc(NCCN4CCOCC4)nc32)cc1F [Compound 18, 9-(3,4-difluorobenzyl)-N-(2-morpholin-4-ylethyl)-9H-pyrimido[5,4-c]tetrazolo[1,5-a][1,5]benzodiazepin-11-amine] | – | – | inhibition at 10 µM (CaMK2α): 42%; inhibition at 10 µM (CaMK2β): 23%; inhibition at 10 µM (CaMK2γ): 12%; inhibition at 10 µM (CaMK2δ): 32%; inhibition at 10 µM (CDK7): 84%
c1ccc2c(c1)Nc1nc(NC3CCCC3)ncc1-c1nnnn1-2 [Compound 45, N-cyclopentyl-9H-pyrimido[5,4-c]tetrazolo[1,5-a][1,5]benzodiazepin-11-amine] | 95% | 76% | –
Clc1ccccc1CNc1ncc2c(n1)Nc1ccccc1-n1nnnc1-2 [Compound 48, N-(2-chlorobenzyl)-9H-pyrimido[5,4-c]tetrazolo[1,5-a][1,5]benzodiazepin-11-amine] | 97% | 51% | –
CC(Nc1ncc2c(n1)Nc1ccccc1-n1nnnc1-2)c1ccccc1 (stereo not shown) [Compound 51, N-(1-phenylethyl)-9H-pyrimido[5,4-c]tetrazolo[1,5-a][1,5]benzodiazepin-11-amine] | 96% | 98% | –
CC(Nc1ncc2c(n1)Nc1ccccc1-n1nnnc1-2)c1ccc(Cl)cc1 (stereo not shown) [Compound 52, N-[1-(4-chlorophenyl)ethyl]-9H-pyrimido[5,4-c]tetrazolo[1,5-a][1,5]benzodiazepin-11-amine] | 97% | 98% | –
COc1ccc(CNc2ncc3c(n2)Nc2ccccc2-n2nnnc2-3)cc1OC [Compound 57, N-(3,4-dimethoxybenzyl)-9H-pyrimido[5,4-c]tetrazolo[1,5-a][1,5]benzodiazepin-11-amine] | 97% | 39% | –
Clc1ccc(CNc2ncc3c(n2)Nc2ccccc2-n2nnnc2-3)cc1 [Compound 58, N-(4-chlorobenzyl)-9H-pyrimido[5,4-c]tetrazolo[1,5-a][1,5]benzodiazepin-11-amine] | 97% | 98% | –
Fc1ccc(F)c(CNc2ncc3c(n2)Nc2ccccc2-n2nnnc2-3)c1 [Compound 59, N-(2,5-difluorobenzyl)-9H-pyrimido[5,4-c]tetrazolo[1,5-a][1,5]benzodiazepin-11-amine] | 97% | 71% | –
CC(C)CC(C)Nc1ncc2c(n1)Nc1ccccc1-n1nnnc1-2 (stereo not shown) [Compound 63, N-(1,3-dimethylbutyl)-9H-pyrimido[5,4-c]tetrazolo[1,5-a][1,5]benzodiazepin-11-amine] | 90% | 32% | –
CC1CCCN1c1ncc2c(n1)Nc1ccccc1-n1nnnc1-2 (stereo not shown) [Compound 68, 11-(2-methylpyrrolidin-1-yl)-9H-pyrimido[5,4-c]tetrazolo[1,5-a][1,5]benzodiazepine] | 97% | 75% | –
COc1cc(CNc2ncc3c(n2)Nc2ccccc2-n2nnnc2-3)cc(OC)c1OC [Compound 72, N-(3,4,5-trimethoxybenzyl)-9H-pyrimido[5,4-c]tetrazolo[1,5-a][1,5]benzodiazepin-11-amine] | 97% | 78% | –
c1ccc2c(c1)CCCC2Nc1ncc2c(n1)Nc1ccccc1-n1nnnc1-2 (stereo not shown) [Compound 77, N-(1,2,3,4-tetrahydronaphthalen-1-yl)-9H-pyrimido[5,4-c]tetrazolo[1,5-a][1,5]benzodiazepin-11-amine] | 97% | 86% | –
c1ccc2c(c1)Nc1nc(NC3CCC3)ncc1-c1nnnn1-2 [Compound 85, N-cyclobutyl-9H-pyrimido[5,4-c]tetrazolo[1,5-a][1,5]benzodiazepin-11-amine] | 97% | 99% | –
Fc1ccccc1CNc1ncc2c(n1)Nc1ccccc1-n1nnnc1-2 [Compound 88, N-(2-fluorobenzyl)-9H-pyrimido[5,4-c]tetrazolo[1,5-a][1,5]benzodiazepin-11-amine] | 96% | 41% | –
CCC(C)CNc1ncc2c(n1)Nc1ccccc1-n1nnnc1-2 (stereo not shown) [Compound 95, N-(2-methylbutyl)-9H-pyrimido[5,4-c]tetrazolo[1,5-a][1,5]benzodiazepin-11-amine] | 97% | 99% | –
c1ccc(CCNc2ncc3c(n2)Nc2ccccc2-n2nnnc2-3)nc1 [Compound 98, N-(2-pyridin-2-ylethyl)-9H-pyrimido[5,4-c]tetrazolo[1,5-a][1,5]benzodiazepin-11-amine] | 76% | 41% | –
COc1ccc(OC)c(CNc2ncc3c(n2)Nc2ccccc2-n2nnnc2-3)c1 [Compound 103, N-(2,5-dimethoxybenzyl)-9H-pyrimido[5,4-c]tetrazolo[1,5-a][1,5]benzodiazepin-11-amine] | 97% | 97% | –
CCCN(C)c1ncc2c(n1)Nc1ccccc1-n1nnnc1-2 [Compound 104, N-methyl-N-propyl-9H-pyrimido[5,4-c]tetrazolo[1,5-a][1,5]benzodiazepin-11-amine] | 97% | 99% | –
